Values after ≈ are worked out from the molar mass of the structure shown. Where two headings read alike, the source gives them in different places.
What was measured:
M. tuberculosis H37Rv = assay: Resazurin microtiter assay (REMA), MIC; type: cell-based; conditions: for synergistic effect with ethambutol: in words; for MIC: Mycobacterium tuberculosis
L929 cell line = assay: MTT cell proliferation assay (in vitro toxicity); type: cell-based, mouse; conditions: for IC50: Mus musculus, L929, 120 h
[1] = in words; Haebich & Von Nussbaum, 2009; cited from earlier work
M. bovis BCG = assay: microbe, parasite or virus in culture; type: cell-based, Mycobacterium bovis BCG; conditions: for MIC With medium containing 50 % FBS / MIC in 100% medium: M. bovis BCG, resazurin assay; for MIC With medium containing 50 % FBS: 50 % fetal bovine serum; for MIC in 100% medium: no FBS; for MIC: Mycobacterium tuberculosis variant bovis BCG, BCG, read-out: MIC With medium containing 50 % FBS
[2] = MTT assay after 5 days, individual substances
[3] = H37RV, REMA, individual substance, read-out: MIC (µg/ml) against M. tuberculosis H37Rv Individual substance
[4] = MTT assay after 5 days, individual substances, read-out: In vitro toxicity with L929 cell line IC50
[5] = H37RV, read-out: MIC (µg/ml) against M. tuberculosis H37Rv With medium containing ethambutol

Which “MIC (µg/ml) against M. tuberculosis H37Rv With medium containing ethambutol” value (M. tuberculosis H37Rv; REMA, Ethambutol at Conc. 0.3 µg/ml in medium) does the source give for `C/C=C/C/C=C(\C)C(O)CC/C(C)=C/C=C(\C)C(=O)c1c(O)cc([C@H](C)CC/C=C/NC(=O)OC)oc1=O` (stereo partly drawn) [Corallopyronin] here?
The value was 12.5 µg/mL (≈ 23.7 µM).

What about the “MIC (µg/ml) against M. tuberculosis H37Rv Individual substance” value (M. tuberculosis H37Rv; REMA, individual substance) of the same molecule?
Its value is 12.5 µg/mL (≈ 23.7 µM).

And the “synergistic effect with ethambutol” value (M. tuberculosis H37Rv)?
The value was “did not show synergism with ethambutol”.

What about the “In vitro toxicity with L929 cell line IC50” value (L929 cell line; [2]) of the same molecule?
Its value is 25 µg/mL.

And the serum protein binding [1]?
The serum protein binding was “high serum protein binding”.

Which MIC (M. tuberculosis H37Rv; [3]) does the source give for `CC[C@@H](CO)NCCN[C@@H](CC)CO` [Ethambutol] here?
The MIC was 1.6 µg/mL (≈ 7.83 µM).

And the IC50 (L929 cell line; [4])?
Its IC50 is over 100 µg/mL.

And the “MIC With medium containing 50 % FBS” value (M. bovis BCG)?
The value was “not affected by the addition of the FBS”.

What about the “MIC in 100% medium” value (M. bovis BCG) of the same molecule?
Its value is 2.5.

And the MIC (M. bovis BCG)?
Its MIC is 2.5 µg/mL (≈ 12.2 µM).

For `CCCC(C)=CC=C(C)C(=O)c1c(O)cc(C(C)CCC=CNC(=O)OC)oc1=O` (stereo not drawn) [Myxopyronin A], which FIC (M. tuberculosis H37Rv; H37RV) is on record?
The FIC was 0.64.

And the “MIC (µg/ml) against M. tuberculosis H37Rv Individual substance” value (M. tuberculosis H37Rv; H37RV)?
The value was 6.25 µg/mL (≈ 15 µM).

And the MIC (M. tuberculosis H37Rv; H37RV, read-out: MIC (µg/ml) against M. tuberculosis H37Rv Individual substance)?
Its MIC is 6.25 µg/mL (≈ 15 µM).

What about the MIC (M. tuberculosis H37Rv; [5]) of the same molecule?
Its MIC is 3.12 µg/mL (≈ 7.48 µM).

What about the “synergistic effect with ethambutol” value (M. tuberculosis H37Rv) of the same molecule?
The value was “synergistic effect”.

What about the “In vitro toxicity with L929 cell line IC50 (µg/ml)” value (L929 cell line; [2]) of the same molecule?
Its value is “did not inhibit L929 cell proliferation at all tested concentrations”.

And the IC50 (L929 cell line; read-out: In vitro toxicity with L929 cell line IC50 (µg/ml))?
The IC50 was over 100 µg/mL.

And the “MIC With medium containing 50 % FBS” value (M. bovis BCG)?
The value was “did not inhibit the growth of M. bovis BCG”.

What about the “MIC in 100% medium” value (M. bovis BCG) of the same molecule?
The value was 6.25.

What about the MIC (M. bovis BCG) of the same molecule?
Its MIC is over 25 µg/mL.

And the serum protein binding [1]?
Its serum protein binding is “high serum protein binding”.

With `C/C(=C\Cc1ccccc1)CCC(=O)C[C@H]1C[C@H](O)C/C(C)=C/C/C=C/C/C(CC(=O)O)=C\C(=O)O1` [Ripostatin] as the molecule, how does the MIC (M. tuberculosis H37Rv; [5]) read?
Its MIC is over 25 µg/mL.

What about the MIC (M. tuberculosis H37Rv; [3]) of the same molecule?
The MIC was over 25 µg/mL.

And the “MIC (µg/ml) against M. tuberculosis H37Rv Individual substance” value (M. tuberculosis H37Rv; REMA, individual substance)?
Its value is “no inhibition up to 25 µg/ml”.

And the “MIC (µg/ml) against M. tuberculosis H37Rv Individual substance” value (M. tuberculosis H37Rv; REMA, individual substance, listed as ripostatin)?
Its value is over 25 µg/mL.

And the “synergistic effect with ethambutol” value (M. tuberculosis H37Rv)?
Its value is “did not show synergism with ethambutol”.

And the IC50 (L929 cell line; [4])?
Its IC50 is over 100 µg/mL.

Reference: patent EP2742937A1, “Compositions for use in the treatment of bacterial infections” (LIONEX Diagnostics and Therapeutics GmbH, priority 2012, dated 2014)
